Experimental data published in patent publication US4162324A, “Antibiotics 890A1 and 890A3” (Merck & Co., Inc., priority 1977, dated 1979).

Experiments:
[1] = test system: Vibrio percolans ATCC 8461; assay: Bioassay, agar plate disc-diffusion method; conditions: 890A1 value defined as standard
[2] = test system: Pseudomonas aeruginosa MB-979; assay: In vitro antibacterial spectrum profile, zone of inhibition; type: cell-based; conditions: MB979, 182 μg/ml, read-out: Inhib. Zone Diam.
[3] = test system: Brucella bronchiseptica ATCC 4617; assay: microbe, parasite or virus in culture; type: cell-based; conditions: Bordetella bronchiseptica, ATCC4617, read-out: Inhib. Zone Diam.
Escherichia coli MB-1418 = assay: In vitro antibacterial spectrum profile, zone of inhibition; type: cell-based; conditions: MB1418, 182 μg/ml, read-out: Inhib. Zone Diam.
[4] = test system: Klebsiella pneumoniae MB-1264; assay: as above; type: cell-based; conditions: MB1264, 182 μg/ml, read-out: Inhib. Zone Diam.
Electrophoresis = type: physicochemical; conditions: neutral pH
[5] = test system: Vibrio percolans ATCC 8461 + 2 × 10^5 units/ml penicillinase; assay: In vitro antibacterial spectrum profile, zone of inhibition, with penicillinase; type: cell-based; conditions: Comamonas terrigena, ATCC8461, 182 μg/ml, read-out: Inhib. Zone Diam.
[6] = test system: Proteus vulgaris (episome) MB-2112; assay: In vitro antibacterial spectrum profile, zone of inhibition; type: cell-based; conditions: 182 μg/ml, read-out: Inhib. Zone Diam.
[7] = test system: Streptococcus faecium MB-2820; assay: as above; type: cell-based; conditions: Enterococcus faecium, MB2820; 182 μg/ml; read-out: Inhib. Zone Diam.
[8] = test system: Pseudomonas aeruginosa MB-2824; assay: as above; type: cell-based; conditions: MB2824, 182 μg/ml, read-out: Inhib. Zone Diam.
[9] = test system: Vibrio percolans resistant to ceph. C MB-2566; assay: as above; type: cell-based; conditions: Comamonas terrigena, read-out: Inhib. Zone Diam.
[10] = test system: Aerobacter aerogenes MB-835; assay: as above; type: cell-based; conditions: Klebsiella aerogenes, MB835; 182 μg/ml; read-out: Inhib. Zone Diam.
Sarcina lutea ATCC 9341 = assay: as above; type: cell-based; conditions: Micrococcus luteus, ATCC9341; 182 μg/ml; read-out: Inhib. Zone Diam.
[11] = test system: Streptococcus faecalis MB-753; assay: as above; type: cell-based; conditions: Enterococcus faecalis, MB753; 182 μg/ml; read-out: Inhib. Zone Diam.
[12] = test system: Vibrio percolans ATCC 8461; assay: as above; type: cell-based; conditions: Comamonas terrigena, ATCC8461; 182 μg/ml; read-out: Inhib. Zone Diam.
[13] = test system: Salmonella gallinarum MB-1287; assay: as above; type: cell-based; conditions: Salmonella enterica, 182 μg/ml, read-out: Inhib. Zone Diam.
[14] = test system: Staphlococcus aureus ATCC 6538 P; assay: as above; type: cell-based; conditions: read-out: Inhib. Zone Diam.
[15] = test system: Bacillus subtilis ATCC 6633; assay: as above; type: cell-based; conditions: ATCC6633, 182 μg/ml, read-out: Inhib. Zone Diam.
[16] = test system: Pseudomonas stutzeri ATCC 11607; assay: as above; type: cell-based; conditions: Stutzerimonas stutzeri, ATCC11607; 182 μg/ml; read-out: Inhib. Zone Diam.
[17] = test system: Escherichia coli ATCC 9637; assay: In vitro antibacterial spectrum profile, zone of inhibition, synthetic medium; type: cell-based; conditions: ATCC9637, 182 μg/ml, synthetic medium, read-out: Inhib. Zone Diam.
[18] = test system: Proteus vulgaris ATCC 21100; assay: In vitro antibacterial spectrum profile, zone of inhibition; type: cell-based; conditions: ATCC21100, 182 μg/ml, read-out: Inhib. Zone Diam.
Protocol: (§1) The test to determine the antibiotic spectrum profile is carried out by application of a 0.015 ml. droplet on the surface of a 100×15 mm. petri plate containing 5 ml. of seeded nutrient agar and 0.2% yeast extract. The antibiotic 890A1 is tested at a level of 33 μg/ml. and the antibiotic 890A3 is tested at a level of 182 μg/ml.

Bacillus sp. MB-633 = assay: as above; type: cell-based; conditions: SP.MB633, 182 μg/ml, read-out: Inhib. Zone Diam.
Protocol: as §1

[19] = test system: Corynebacterium pseudoidph. ATCC 9742; assay: as above; type: cell-based; conditions: ATCC9742, 182 μg/ml, read-out: Inhib. Zone Diam.
Protocol: as §1

[20] = test system: Alcaligenes faecalis ATCC 213; assay: as above; type: cell-based; conditions: ATCC213, 182 μg/ml, read-out: Inhib. Zone Diam.
Protocol: as §1

[21] = test system: Serratia marcescens ATCC 990; assay: as above; type: cell-based; conditions: ATCC990, 182 μg/ml, read-out: Inhib. Zone Diam.
[22] = test system: Erwinia atroseptica ATCC 4466; assay: as above; type: cell-based; conditions: Pectobacterium atrosepticum, ATCC4466; 182 μg/ml; read-out: Inhib. Zone Diam.
[23] = test system: Xanthomonas vesicatoria MB-815; assay: as above; type: cell-based; conditions: MB815, 182 μg/ml, read-out: Inhib. Zone Diam.
[24] = test system: Proteus mirabilis MB-3126; assay: as above; type: cell-based; conditions: MB3126, 182 μg/ml, read-out: Inhib. Zone Diam.
Proteus vulgaris MB-1012 = assay: as above; type: cell-based; conditions: MB1012, 182 μg/ml, read-out: Inhib. Zone Diam.
[25] = test system: Streptococcus agalactiae MB-2875; assay: as above; type: cell-based; conditions: MB2875, 182 μg/ml, read-out: Inhib. Zone Diam.
[26] = test system: Staphylococcus aureus MB-698; assay: as above; type: cell-based; conditions: MB698, read-out: Inhib. Zone Diam.
penicillinase = assay: Resistance to degradation by penicillinase; type: biochemical; conditions: compared with 890A1
Protocol: Bio-Gel fraction 63 is combined with fractions 61, 66 and 67 from the Bio-Gel column. These four combined fractions have a total of 235 absorbance units at 300 nm. To this is added 0.2 ml. of 1M Tris-HCl buffer, ph 7.5, and 0.2 ml. of penicillinase [Difco "Bacto-Penase," containing 500,000 units per ml. (1000 LU/ml.) wherein the term LU refers to Levy units; 1,000 LU will inactivate 500,000 units of penicillin G].
After 113 minutes at 23° C., an additional 0.2 ml. of penicillinase is added. After an additional 7 hours at room temperature, another 0.2 ml. of penicillinase is added, and after an additional two hours at room temperature, the reaction mixture is chilled in an ice bath. The terminated reaction mixture is diluted to 15 ml. by addition of 5 ml. of deionized water. The absorbance of the diluted reacted preparation is 6.3 at 300 nm of which 2.64 is extinguishable by reaction with cysteine.

SMILES: CC(=O)NCCSC1=C(C(=O)O)N2C(=O)C(C(C)O)C2C1 (centres unmarked) [Antibiotic 890A3]
- antibiotic potency [1]: 31 units per HAEA300 unit
- zone of inhibition at 182 µg/mL [2]: 0 mm
- zone of inhibition at 182 µg/mL [3]: 27 mm
- zone of inhibition at 182 µg/mL (Escherichia coli MB-1418): 32 mm
- zone of inhibition at 182 µg/mL [4]: 33 mm
- movement on electrophoresis (Electrophoresis): acidic substance which moves to the positive pole on electrophoresis at neutral pH
- zone of inhibition at 182 µg/mL [5]: 35 mm
- zone of inhibition at 182 µg/mL [6]: 38 mm
- zone of inhibition at 182 µg/mL [7]: 24 mm
- zone of inhibition at 182 µg/mL [8]: 32 mm
- zone of inhibition at 182 µg/mL [9]: 34 mm
- zone of inhibition at 182 µg/mL [10]: 30 mm
- zone of inhibition at 182 µg/mL (Sarcina lutea ATCC 9341): 44 mm
- zone of inhibition at 182 µg/mL [11]: 17 mm
- zone of inhibition at 182 µg/mL [12]: 40 mm
- zone of inhibition at 182 µg/mL [13]: 33 mm
- zone of inhibition at 182 µg/mL [14]: 36 mm
- zone of inhibition at 182 µg/mL [15]: 40 mm
- zone of inhibition at 182 µg/mL [16]: 32 mm
- zone of inhibition at 182 µg/mL [17]: 29 mm
- zone of inhibition at 182 µg/mL [18]: 34 mm
- zone of inhibition at 182 µg/mL (Bacillus sp. MB-633): 37 mm
- zone of inhibition at 182 µg/mL [19]: 36 mm
- zone of inhibition at 182 µg/mL [20]: 34 mm
- zone of inhibition at 182 µg/mL [21]: 28 mm
- zone of inhibition at 182 µg/mL [22]: 30 mm
- zone of inhibition at 182 µg/mL [23]: 26 mm
- zone of inhibition at 182 µg/mL [24]: 30 mm
- zone of inhibition at 182 µg/mL (Proteus vulgaris MB-1012): 24 mm
- zone of inhibition at 182 µg/mL [25]: 30 mm
- zone of inhibition at 182 µg/mL [26]: 34 mm
- resistance to degradation by penicillinase (penicillinase): relatively higher resistance
